Test results: patent US7368286B2, “Method and device for identifying substances capable of modulating adipocyte differentiation” (Genfit, priority 2002, dated 2008)

System: aP2 and PPAR GAMMA receptor mRNA in 3T3-L1 cells
Test: Northern blot of adipocyte markers in 3T3-L1 cells infected with MFG-Neo or MFG-REV retrovirus
Assay type: cell-based
Conditions: control cells (MFG-Neo)
Protocol: 3T3-L1 cells were infected with either MFG-Neo or MFG-REV retrovirus and treated for 8 days with a mixture containing IBMX and insulin (“Mix”), with or without 1 μM rosiglitazone. mRNA was then extracted and analyzed by Northern blot using the indicated probes.
RNA extraction and Northern blot analyses were carried out according to the previously described method (Staels, B. et al., Arteriosclerosis and Thrombosis 1992, 12(3): 286-294) using rat Rev-erb alpha, murine PPAR gamma and murine aP2, chicken beta-actin and human 36B4 cDNA probes.
Cells post-confluent after two days of culture (designated day D0) were transferred to differentiation medium (DMEM, 10% FCS, 1 μM dexamethasone, 10 μg/ml insulin and 0.5 mM 3-methyl-1-isobutylxanthine (IBMX) (Sigma, St Louis, Mo., USA)) for two days. Cells were then grown in post-differentiation medium (DMEM, 10% FCS, insulin) with or without rosiglitazone. The medium was changed every day. Stable 3T3-L1 pre-adipocytes expressing the REV-ERB ALPHA receptor were grown in the same conditions but differentiated without dexamethasone. After the treatment, cells were fixed with 10% formaldehyde in PBS and stained with Oil Red O (Sigma, St Louis, Mo., USA). Alternatively, total RNA was extracted as described earlier.
3T3-L1 pre-adipocytes were then infected with the resulting virus. […]

How did the “time until high aP2 and PPAR GAMMA receptor mRNA levels were observed” value turn out when `CN(CCOc1ccc(CC2SC(=O)NC2=O)cc1)c1ccccn1` (stereo not shown) [rosiglitazone] was run?
Its value is 8 to 12 days.
